Values quoted from earlier work, collected in patent publication US20180344676A1, “TOPICAL ANALGESIC PAIN RELIEF FORMULATIONS, MANUFACTURE AND METHODS OF USE THEREOF” (priority 2015, published 2018).

Columns and labels:
hTRPA1 = hTRPA1 (Homo sapiens, UniProt O75762); conditions: for inhibition of hTRPA1 activation by menthol and allyl isothiocyanate: compound at 1 mM, menthol 1 mM and allyl isothiocyanate 10 uM
pain and itch responses = conditions: mice
human TRPM8 (hTRPM8) = human TRPM8 (hTRPM8) (Homo sapiens, UniProt Q7Z2W7)
hTRPV1 = hTRPV1 (Homo sapiens, UniProt Q8NER1)
hTRPV2 = biological target: T1, hTRPV2 (Homo sapiens, UniProt Q9Y5S1)
T1 sequence (Q9Y5S1 1-764): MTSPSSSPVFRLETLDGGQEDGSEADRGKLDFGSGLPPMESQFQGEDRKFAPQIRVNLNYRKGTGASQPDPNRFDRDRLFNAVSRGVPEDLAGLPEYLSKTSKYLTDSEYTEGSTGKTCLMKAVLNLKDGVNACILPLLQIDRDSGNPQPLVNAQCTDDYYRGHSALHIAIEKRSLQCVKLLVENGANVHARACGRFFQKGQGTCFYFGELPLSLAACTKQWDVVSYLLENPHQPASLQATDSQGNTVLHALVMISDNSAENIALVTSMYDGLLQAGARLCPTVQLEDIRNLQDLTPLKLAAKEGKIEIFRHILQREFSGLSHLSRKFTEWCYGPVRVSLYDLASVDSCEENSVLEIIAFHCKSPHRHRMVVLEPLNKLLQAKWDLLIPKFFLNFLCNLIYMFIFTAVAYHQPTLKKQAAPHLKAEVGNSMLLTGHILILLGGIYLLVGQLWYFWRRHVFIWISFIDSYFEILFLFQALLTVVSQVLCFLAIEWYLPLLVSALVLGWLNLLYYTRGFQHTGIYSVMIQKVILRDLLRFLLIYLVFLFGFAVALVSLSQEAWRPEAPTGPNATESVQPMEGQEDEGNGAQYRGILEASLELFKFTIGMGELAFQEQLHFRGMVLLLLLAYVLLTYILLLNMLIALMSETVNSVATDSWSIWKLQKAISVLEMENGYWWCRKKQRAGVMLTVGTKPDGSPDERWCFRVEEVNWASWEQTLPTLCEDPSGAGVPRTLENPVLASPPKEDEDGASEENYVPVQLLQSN

Chain of hTRPA1 (O75762 whole entry): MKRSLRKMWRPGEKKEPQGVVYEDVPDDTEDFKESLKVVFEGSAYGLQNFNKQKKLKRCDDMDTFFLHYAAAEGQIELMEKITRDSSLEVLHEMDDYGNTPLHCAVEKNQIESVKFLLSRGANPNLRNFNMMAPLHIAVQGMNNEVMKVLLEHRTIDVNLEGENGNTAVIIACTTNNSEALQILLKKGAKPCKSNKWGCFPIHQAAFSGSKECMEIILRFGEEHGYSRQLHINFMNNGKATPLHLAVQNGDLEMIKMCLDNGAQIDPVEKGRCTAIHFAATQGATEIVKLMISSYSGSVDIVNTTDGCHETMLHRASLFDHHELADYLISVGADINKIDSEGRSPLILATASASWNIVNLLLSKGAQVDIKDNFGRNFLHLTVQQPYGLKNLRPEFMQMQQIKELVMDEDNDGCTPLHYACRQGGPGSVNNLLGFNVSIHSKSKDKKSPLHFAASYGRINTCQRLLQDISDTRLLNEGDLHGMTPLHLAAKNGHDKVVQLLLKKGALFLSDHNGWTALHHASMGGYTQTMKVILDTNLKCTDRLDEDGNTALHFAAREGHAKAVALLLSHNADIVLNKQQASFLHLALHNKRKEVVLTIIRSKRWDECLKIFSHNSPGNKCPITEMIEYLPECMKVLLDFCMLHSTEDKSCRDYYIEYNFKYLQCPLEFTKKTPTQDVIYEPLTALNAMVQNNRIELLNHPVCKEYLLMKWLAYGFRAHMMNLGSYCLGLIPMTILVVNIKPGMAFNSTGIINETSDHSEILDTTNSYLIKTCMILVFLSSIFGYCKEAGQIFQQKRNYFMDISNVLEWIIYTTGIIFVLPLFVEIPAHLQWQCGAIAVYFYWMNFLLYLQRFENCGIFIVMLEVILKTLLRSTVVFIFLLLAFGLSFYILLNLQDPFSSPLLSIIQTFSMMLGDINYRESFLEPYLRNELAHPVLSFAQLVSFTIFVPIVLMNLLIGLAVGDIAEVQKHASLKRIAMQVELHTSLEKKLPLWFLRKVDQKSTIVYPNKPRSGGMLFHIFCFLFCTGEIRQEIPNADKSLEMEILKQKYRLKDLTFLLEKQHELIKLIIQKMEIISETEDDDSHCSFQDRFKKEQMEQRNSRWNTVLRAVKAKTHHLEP
Chain of hTRPV1 (Q8NER1 whole entry): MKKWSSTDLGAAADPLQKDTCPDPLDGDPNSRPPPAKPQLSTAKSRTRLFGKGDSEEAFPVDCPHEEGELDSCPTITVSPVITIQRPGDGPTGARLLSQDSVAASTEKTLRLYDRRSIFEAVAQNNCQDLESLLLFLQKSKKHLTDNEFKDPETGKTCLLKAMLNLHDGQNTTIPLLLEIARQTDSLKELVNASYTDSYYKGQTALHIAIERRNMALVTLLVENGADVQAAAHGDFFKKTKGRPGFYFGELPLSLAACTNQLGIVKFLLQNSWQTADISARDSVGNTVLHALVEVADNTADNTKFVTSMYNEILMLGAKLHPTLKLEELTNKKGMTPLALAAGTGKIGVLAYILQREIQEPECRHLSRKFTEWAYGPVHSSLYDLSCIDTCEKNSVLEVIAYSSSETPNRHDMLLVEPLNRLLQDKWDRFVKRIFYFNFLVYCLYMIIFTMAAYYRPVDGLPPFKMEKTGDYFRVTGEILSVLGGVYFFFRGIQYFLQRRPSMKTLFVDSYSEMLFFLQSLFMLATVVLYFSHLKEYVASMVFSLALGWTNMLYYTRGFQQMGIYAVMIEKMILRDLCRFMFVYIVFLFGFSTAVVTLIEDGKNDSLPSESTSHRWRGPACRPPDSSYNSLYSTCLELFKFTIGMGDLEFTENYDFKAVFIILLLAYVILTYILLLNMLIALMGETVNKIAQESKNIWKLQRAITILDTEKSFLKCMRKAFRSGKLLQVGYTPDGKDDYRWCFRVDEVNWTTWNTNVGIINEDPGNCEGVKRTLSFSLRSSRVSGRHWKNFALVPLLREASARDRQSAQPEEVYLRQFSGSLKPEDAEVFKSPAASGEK
Chain of human TRPM8 (hTRPM8) (Q7Z2W7 whole entry): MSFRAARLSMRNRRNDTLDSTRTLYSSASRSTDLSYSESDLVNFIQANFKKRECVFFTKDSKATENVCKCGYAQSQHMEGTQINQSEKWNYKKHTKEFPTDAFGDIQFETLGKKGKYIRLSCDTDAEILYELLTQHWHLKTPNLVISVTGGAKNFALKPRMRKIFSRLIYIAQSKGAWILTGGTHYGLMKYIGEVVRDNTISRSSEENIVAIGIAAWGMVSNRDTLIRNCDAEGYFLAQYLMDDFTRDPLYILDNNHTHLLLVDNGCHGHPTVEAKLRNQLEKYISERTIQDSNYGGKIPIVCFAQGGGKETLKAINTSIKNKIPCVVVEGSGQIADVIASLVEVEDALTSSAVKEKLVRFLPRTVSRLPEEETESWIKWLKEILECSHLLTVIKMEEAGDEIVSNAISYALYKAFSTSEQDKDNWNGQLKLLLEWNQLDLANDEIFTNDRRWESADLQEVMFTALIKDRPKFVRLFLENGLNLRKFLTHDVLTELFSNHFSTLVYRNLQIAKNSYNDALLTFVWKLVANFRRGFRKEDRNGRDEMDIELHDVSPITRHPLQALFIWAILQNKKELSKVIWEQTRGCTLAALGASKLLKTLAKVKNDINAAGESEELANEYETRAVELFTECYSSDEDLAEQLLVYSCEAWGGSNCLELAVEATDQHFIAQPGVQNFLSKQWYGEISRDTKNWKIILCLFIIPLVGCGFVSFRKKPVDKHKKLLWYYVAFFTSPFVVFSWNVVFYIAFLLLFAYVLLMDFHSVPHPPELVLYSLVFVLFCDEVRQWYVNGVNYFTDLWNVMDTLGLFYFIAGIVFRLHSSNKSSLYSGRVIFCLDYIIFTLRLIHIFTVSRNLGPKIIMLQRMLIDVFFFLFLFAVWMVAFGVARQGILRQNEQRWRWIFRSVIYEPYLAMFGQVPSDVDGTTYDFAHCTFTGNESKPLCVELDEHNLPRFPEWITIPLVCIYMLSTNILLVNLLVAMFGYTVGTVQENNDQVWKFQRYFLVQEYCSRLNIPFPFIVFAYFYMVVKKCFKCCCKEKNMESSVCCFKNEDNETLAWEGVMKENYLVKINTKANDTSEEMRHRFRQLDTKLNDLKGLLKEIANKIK

| SMILES | activation of hTRPA1 (hTRPA1) | inhibition of hTRPA1 activation by menthol and allyl isothiocyanate (hTRPA1) | further results |
| --- | --- | --- | --- |
| O=C1CC2CC[C@H]1C2 [norcamphor] | did not activate |  |  |
| CCCCCCCC/C=C\CCCCCCCC(=O)O [oleic acid] |  |  | TRPV1 activity (TRPV1): inhibited; pain and itch responses (pain and itch responses): inhibited |
| CC12CCC(CC1)C(C)(C)O2 [1,8-cineole] |  |  | activation of human TRPM8 (human TRPM8 (hTRPM8)): activates; activation of hTRPV1 (hTRPV1): did no( activate; activation of hTRPV2 (hTRPV2): did no( activate |
| CC12CCC(CC1=O)C2(C)C (stereo not shown) [camphor] | did not activate |  |  |

Continued, in another order:

| activation of hTRPA1 (hTRPA1) | inhibition of hTRPA1 activation by menthol and allyl isothiocyanate (hTRPA1) | SMILES | further results |
| --- | --- | --- | --- |
| did not activate | completely inhibited | CC1(C)C2CCC1(C)C(O)C2 (stereo not shown) [borneol] |  |
| did not activate | completely inhibited | CC1(C)[C@@H]2CC[C@@]1(C)[C@](C)(O)C2 [2-methylosoborneol] |  |
| did not activate | completely inhibited | CC12CCC(C1)C(C)(C)C2O (stereo not shown) [fenchyl alcohol] |  |
